# Test results from the supplement of paper PMC10307832.
# What was measured:
# Assay in all cases: relative viability (nuclei count vs DMSO), 5 days (fraction); higher = more cells survive
# [1] = compound: COc1cccc2c1C(=O)c1c(O)c3c(c(O)c1C2=O)C[C@@](O)(C(=O)CO)C[C@@H]3O[C@H]1C[C@H](N)[C@H](O)[C@H](C)O1 [Doxorubicin] + CC1(C)CCC(c2ccc(Cl)cc2)=C(CN2CCN(c3ccc(C(=O)NS(=O)(=O)c4ccc(N[C@H](CCN5CCOCC5)CSc5ccccc5)c(S(=O)(=O)C(F)(F)F)c4)cc3)CC2)C1 [Navitoclax] (partner 0.5 µM)
# Outline: (§1)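 Relative viability is defined as nuclei in treated wells over nuclei in vehicle wells. Duplicate plates were run and medians reported. Lung cancer cell lines in 1536-well plates were dosed by pin tool one day after seeding, with one drug or with a fixed anchor-drug dose plus five library-drug doses (not always all listed) in √10 steps, and nuclei were counted after 5 days.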
# [2] = compound: COc1cccc2c1C(=O)c1c(O)c3c(c(O)c1C2=O)C[C@@](O)(C(=O)CO)C[C@@H]3O[C@H]1C[C@H](N)[C@H](O)[C@H](C)O1 [Doxorubicin] + C[C@]1(O)C[C@@H](c2nc(-c3ccc4ccc(-c5ccccc5)nc4c3)c3c(N)nccn32)C1 [Linsitinib] (partner 1 µM)
# Outline: as §1
# [3] = compound: COC1=C(C=C(C=C1)C2=CC3=NC=CN3C(=N2)NC4=C(C=CC=N4)C(=O)N)OC [BAY61-3606] + Cc1cc(Nc2cc(N3CCN(C)CC3)nc(Sc3ccc(NC(=O)C4CC4)cc3)n2)n[nH]1 [Tozasertib] (partner 0.1 µM)
# Outline: as §1
# [4] = compound: COc1cccc2c1C(=O)c1c(O)c3c(c(O)c1C2=O)C[C@@](O)(C(=O)CO)C[C@@H]3O[C@H]1C[C@H](N)[C@H](O)[C@H](C)O1 [Doxorubicin] + CC(=O)c1c(C)c2cnc(Nc3ccc(N4CCNCC4)cn3)nc2n(C2CCCC2)c1=O [Palbociclib] (partner 0.5 µM)
# Outline: as §1
Cell Line,relative viability ([1]; first compound 0.001 µM),relative viability ([1]; first compound 0.003162 µM),relative viability ([1]; first compound 0.01 µM),relative viability ([1]; first compound 0.03162 µM),relative viability ([1]; first compound 0.1 µM),relative viability ([2]; first compound 0.001 µM),relative viability ([2]; first compound 0.003162 µM),relative viability ([2]; first compound 0.01 µM),relative viability ([2]; first compound 0.03162 µM),relative viability ([2]; first compound 0.1 µM),relative viability ([3]; first compound 0.02 µM),relative viability ([3]; first compound 0.06325 µM),relative viability ([3]; first compound 0.2 µM),relative viability ([3]; first compound 0.6325 µM),relative viability ([3]; first compound 2 µM),relative viability ([4]; first compound 0.001 µM),relative viability ([4]; first compound 0.003162 µM),relative viability ([4]; first compound 0.01 µM),relative viability ([4]; first compound 0.03162 µM),relative viability ([4]; first compound 0.1 µM)
EBC-1,0.488,0.524,0.377,0.171,0.123,0.826,0.839,0.983,0.722,0.985,–,–,–,–,–,–,–,–,–,–
NCI-H596,0.931,0.963,0.903,0.832,0.972,1.01,1.12,1.09,1.01,0.992,1.2,0.941,0.746,0.844,0.435,–,–,–,–,–
A-427,1,0.978,0.966,0.983,1.05,1.11,1.15,1.11,1.17,1.16,0.222,0.183,0.171,0.222,0.187,0.518,0.526,0.517,0.449,0.363
NCI-H3122,1.05,1.01,0.973,1.02,1.02,1.05,0.995,1.06,1.06,1,0.456,0.262,0.377,0.438,0.305,0.182,0.189,0.187,0.14,0.188
NCI-H1437,1.03,1.12,1.02,0.75,0.379,1,1.13,0.965,0.591,0.28,0.402,0.391,0.428,0.416,0.374,0.315,0.327,0.294,0.295,0.26
SK-MES-1,1.28,0.745,1.09,1.01,0.76,0.952,1.07,1.07,1.05,0.936,0.889,0.819,0.623,0.61,0.135,0.326,0.319,0.321,0.281,0.23
HCC-366,–,1.03,0.99,0.809,1.07,–,0.392,0.706,0.52,0.512,0.115,0.0576,0.0642,0.0443,0.0501,0.352,0.456,0.361,0.275,0.361
NCI-H2347,0.628,0.768,0.77,0.71,0.85,0.978,0.923,0.923,0.889,0.959,0.531,0.384,0.394,0.427,0.32,0.456,0.427,0.38,0.394,0.506
